The target of test [1] is T1, human glucagon receptor (hGCGR) (Homo sapiens, UniProt P47871).
T1 construct: expressed in transfected cells; host or cells: CHO
Kind of test: cAMP production (HTRF) in CHO cells expressing human glucagon receptor. In kind it is cell-based. The settings on record: read-out: hGluc-R EC50. As to the method:
Cells were re-suspended in assay buffer at a batch-dependent optimized concentration (typically hGLP-1R cells at 1×10^5 cells/mL, hGCGR cells at 2×10^5 cells/mL).
Cells were added to the assay plate using a multidrop dispenser and incubated at room temperature for 30 minutes before measuring the cAMP level using a cAMP dynamic 2 homogeneous time resolved Fluorescence (HTRF) kit (Cisbio Bioassays #62AM4PEJ) following the two-step protocol as per manufacturer's recommendations. In brief, anti-cAMP cryptate (donor fluorophore) and cAMP-d2 (acceptor fluorophore) were made up separately by diluting each 1 in 20 in conjugate and lysis buffer provided in the kit. Anti-cAMP cryptate was added to all wells of the assay plate, followed by cAMP-d2 added to all wells except non-specific binding (NSB) wells (to which conjugate and lysis buffer was added).
Data was transformed to % Delta F as described in the manufacturer's guidelines and analyzed by 4-parameter logistic fit to determine EC50 values.
For orientation: cAMP levels reflect the balance of adenylyl cyclase and phosphodiesterase activity.

Test [2] has as its target T2, human GLP-1 receptor (hGLP-1R) (Homo sapiens, UniProt P43220).
T2 construct: expressed in transfected cells; host or cells: CHO
Kind of test: cAMP production (HTRF) in CHO cells expressing human GLP-1 receptor. In kind it is cell-based. Particulars: Table 8; % GLP-1R activity relative to GLP-1 / % GlucR activity relative to glucagon.

Setting [3] is: Table 6, modification at position 17, CHO cells expressing hGCGR, geometric mean.

Where two headings read alike, the source gives them in different places. Starred links: 1 amine or outer side, 2 acyl side, 3 side chain; linkers in the order of their positions; H or OH if unused. Non-standard residues stand in square brackets, D forms with d. Residues, ends and D or L forms follow the SMILES beside them. Groups on a side chain read outwards from the residue. *: point of attachment. C18 diacid = O=C(O)CCCCCCCCCCCCCCCCC(=O)*; γGlu = O=C(O)[C@H](CCC(=O)[*:2])N[*:1]; Stearoyl = CCCCCCCCCCCCCCCCCC(=O)*; αMeF = C[C@](N)(Cc1ccccc1)C(=O)O; PEG2 = NCCOCCOCCC(=O)O; AEEA = NCCOCCOCC(=O)O; Aib = CC(C)(N)C(=O)O

T1 sequence (P47871 26-477): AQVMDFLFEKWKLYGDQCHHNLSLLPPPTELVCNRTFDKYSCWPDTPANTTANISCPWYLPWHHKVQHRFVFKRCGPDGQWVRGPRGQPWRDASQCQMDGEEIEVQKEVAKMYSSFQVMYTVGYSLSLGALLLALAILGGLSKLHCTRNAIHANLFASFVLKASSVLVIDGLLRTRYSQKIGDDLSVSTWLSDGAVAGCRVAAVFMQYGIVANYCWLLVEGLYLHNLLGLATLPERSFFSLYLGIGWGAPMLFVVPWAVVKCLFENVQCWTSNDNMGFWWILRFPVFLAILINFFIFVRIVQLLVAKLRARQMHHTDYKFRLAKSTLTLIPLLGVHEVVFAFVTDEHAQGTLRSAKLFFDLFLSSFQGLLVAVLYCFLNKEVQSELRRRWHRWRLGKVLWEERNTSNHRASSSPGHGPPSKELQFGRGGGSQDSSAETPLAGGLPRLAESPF
T2 sequence (P43220 24-463): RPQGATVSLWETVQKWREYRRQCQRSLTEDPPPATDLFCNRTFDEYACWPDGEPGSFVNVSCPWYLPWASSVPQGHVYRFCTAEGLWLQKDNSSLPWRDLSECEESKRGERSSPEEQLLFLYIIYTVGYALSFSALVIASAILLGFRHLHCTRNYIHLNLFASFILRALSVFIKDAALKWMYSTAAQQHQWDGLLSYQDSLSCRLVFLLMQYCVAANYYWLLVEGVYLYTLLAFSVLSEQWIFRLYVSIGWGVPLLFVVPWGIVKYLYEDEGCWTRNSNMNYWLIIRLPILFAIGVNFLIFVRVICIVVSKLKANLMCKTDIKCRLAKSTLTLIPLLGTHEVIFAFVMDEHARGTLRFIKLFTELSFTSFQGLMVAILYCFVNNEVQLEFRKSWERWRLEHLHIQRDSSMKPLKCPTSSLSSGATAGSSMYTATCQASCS

In the case of `CCCCCCCCCCCCCCCCCC(=O)N[C@@H](CCC(=O)N[C@@H](CCC(=O)NCCOCCOCCC(=O)NCCOCCOCCC(=O)NCCCC[C@H](NC(=O)[C@H](CO)NC(=O)[C@H](CC(=O)O)NC(=O)[C@H](CC(C)C)NC(=O)[C@](C)(Cc1ccccc1)NC(=O)[C@H](CCCCN)NC(=O)[C@H](CO)NC(=O)[C@@H](NC(=O)[C@H](CC(=O)O)NC(=O)[C@H](CO)NC(=O)[C@@H](NC(=O)[C@](C)(Cc1ccccc1)NC(=O)[C@H](CO)NC(=O)CNC(=O)[C@H](CCC(N)=O)NC(=O)[C@H](CO)NC(=O)[C@@H](N)Cc1c[nH]cn1)[C@@H](C)O)C(C)C)C(=O)N[C@@H](C)C(=O)N[C@@H](C)C(=O)N[C@@H](CCC(N)=O)C(=O)N[C@@H](CC(=O)O)C(=O)N[C@@](C)(Cc1ccccc1)C(=O)N[C@H](C(=O)N[C@@H](CCC(N)=O)C(=O)NC(C)(C)C(=O)N[C@H](C(=O)N[C@@H](C)C(=O)N[C@@H](CC(N)=O)C(=O)N[C@H](C(N)=O)[C@@H](C)O)[C@@H](C)CC)C(C)C)C(=O)O)C(=O)O` [Peptide 82] (H-HSQGS[αMeF]TSDVSK[αMeF]LDSK([PEG2-PEG2-γGlu-γGlu-Stearoyl])AAQD[αMeF]VQ[Aib]IANT-NH2; N-terminus assumed), the EC50 (usually the midpoint of the concentration-response curve) in test [1] (setting [3]) turned out to be 0.00777 nM. As to `CCCCCCCCCCCCCCCC(=O)N[C@@H](CCC(=O)NCCOCCOCCC(=O)NCCOCCOCCC(=O)NCCCC[C@H](NC(=O)[C@H](CC(=O)O)NC(=O)[C@H](CO)NC(=O)[C@@H](NC(=O)[C@H](Cc1ccccc1)NC(=O)[C@H](CO)NC(=O)CNC(=O)[C@H](CCC(N)=O)NC(=O)C(C)(C)NC(=O)[C@@H](N)Cc1c[nH]cn1)[C@@H](C)O)C(=O)N[C@@H](CO)C(=O)N[C@@H](CCCCN)C(=O)N[C@H](C(=O)N[C@@H](CC(C)C)C(=O)N[C@@H](CC(=O)O)C(=O)N[C@@H](CO)C(=O)N[C@@H](CCCNC(=N)N)C(=O)N[C@@H](C)C(=O)N[C@@H](C)C(=O)N[C@@H](CCC(N)=O)C(=O)N[C@@H](CC(=O)O)C(=O)N[C@@H](Cc1ccccc1)C(=O)N[C@H](C(=O)N[C@@H](CCC(=O)O)C(=O)N[C@@H](Cc1c[nH]c2ccccc12)C(=O)N[C@H](C(=O)N[C@@H](C)C(=O)N[C@@H](CC(N)=O)C(=O)N[C@H](C(N)=O)[C@@H](C)O)[C@@H](C)CC)C(C)C)[C@@H](C)CC)C(=O)O` [Peptide 395], the EC50 in test [1] (Table 9, peptides modified at position 10, geometric mean, CHO cells) stood at 0.00955 nM. Consider `CC(C)C[C@H](NC(=O)[C@H](Cc1c[nH]c2ccccc12)NC(=O)[C@H](CCCNC(=N)N)NC(=O)[C@@H](NC(=O)[C@H](Cc1ccccc1)NC(=O)[C@H](CC(=O)O)NC(=O)[C@H](CCCNC(=N)N)NC(=O)[C@H](C)NC(=O)[C@H](CCCNC(=N)N)NC(=O)[C@H](CCCCNC(=O)CC[C@H](NC(=O)CC[C@H](NC(=O)COCCOCCNC(=O)COCCOCCNC(=O)CC[C@H](NC(=O)CC[C@H](NC(=O)CCCCCCCCCCCCCCCCC(=O)O)C(=O)O)C(=O)O)C(=O)O)C(=O)O)NC(=O)[C@H](CO)NC(=O)[C@H](CC(=O)O)NC(=O)[C@H](CC(C)C)NC(=O)[C@](C)(Cc1ccccc1)NC(=O)[C@H](CCCCN)NC(=O)[C@H](CO)NC(=O)[C@@H](NC(=O)[C@H](CC(=O)O)NC(=O)[C@H](CO)NC(=O)[C@@H](NC(=O)[C@H](Cc1ccccc1)NC(=O)[C@@H](NC(=O)CNC(=O)[C@H](CCC(N)=O)NC(=O)C(C)(C)NC(=O)[C@@H](N)Cc1c[nH]cn1)[C@@H](C)O)[C@@H](C)O)C(C)C)C(C)C)C(=O)N[C@@H](CC(C)C)C(=O)N[C@@H](CCC(=O)O)C(=O)NC(C)(C)C(=O)NCC(=O)O` [Peptide 136] (H-H[Aib]QGTFTSDVSK[αMeF]LDSK([γGlu-γGlu-AEEA-AEEA-γGlu-γGlu-C18 diacid])RARDFVRWLLE[Aib]G-OH; N-terminus assumed), for which, in test [1] (setting [3]), the half-maximal effective concentration (EC50) was determined as 0.509 nM. The same measure, in the same setting: in the case of `CC(C)C[C@H](NC(=O)[C@H](Cc1c[nH]c2ccccc12)NC(=O)[C@H](CCCNC(=N)N)NC(=O)[C@@H](NC(=O)[C@H](Cc1ccccc1)NC(=O)[C@H](CC(=O)O)NC(=O)[C@H](CCCNC(=N)N)NC(=O)[C@H](C)NC(=O)[C@H](CCCNC(=N)N)NC(=O)[C@H](CCCCNC(=O)CC[C@H](NC(=O)CC[C@H](NC(=O)COCCOCCNC(=O)COCCOCCNC(=O)CC[C@H](NC(=O)CC[C@H](NC(=O)CCCCCCCCCCCCCCCCC(=O)O)C(=O)O)C(=O)O)C(=O)O)C(=O)O)NC(=O)[C@H](CO)NC(=O)[C@H](CC(=O)O)NC(=O)[C@H](CC(C)C)NC(=O)[C@](C)(Cc1ccccc1)NC(=O)[C@H](CCCCN)NC(=O)[C@H](CO)NC(=O)[C@@H](NC(=O)[C@H](CC(=O)O)NC(=O)[C@H](CO)NC(=O)[C@@H](NC(=O)[C@H](Cc1ccccc1)NC(=O)[C@@H](NC(=O)CNC(=O)[C@H](CCC(N)=O)NC(=O)C(C)(C)NC(=O)[C@@H](N)Cc1c[nH]cn1)[C@@H](C)O)[C@@H](C)O)C(C)C)C(C)C)C(=O)N[C@@H](CC(C)C)C(=O)N[C@@H](CCC(=O)O)C(=O)NC(C)(C)C(=O)NCC(=O)O` [Peptide 144] (H-H[Aib]QGTFTSDVSK[αMeF]LDSK([γGlu-γGlu-AEEA-AEEA-γGlu-γGlu-C18 diacid])RARDFVRWLLE[Aib]G-OH; N-terminus assumed) it was 0.702 nM. On to `CC[C@H](C)[C@H](NC(=O)[C@H](Cc1c[nH]c2ccccc12)NC(=O)[C@H](CCCCNC(=O)COCCOCCNC(=O)COCCOCCNC(=O)CC[C@H](NC(=O)CCCCCCCCCCCCCCCCC(=O)O)C(=O)O)NC(=O)[C@@H](NC(=O)[C@H](Cc1ccccc1)NC(=O)[C@H](CC(=O)O)NC(=O)[C@H](CCC(N)=O)NC(=O)[C@H](C)NC(=O)[C@H](C)NC(=O)[C@H](CCC(N)=O)NC(=O)[C@H](CO)NC(=O)[C@H](CC(=O)O)NC(=O)[C@H](CC(C)C)NC(=O)[C@](C)(Cc1ccccc1)NC(=O)[C@H](CCCCN)NC(=O)[C@H](CO)NC(=O)[C@@H](NC(=O)[C@H](CC(=O)O)NC(=O)[C@H](CO)NC(=O)[C@@H](NC(=O)[C@](C)(Cc1ccccc1)NC(=O)[C@H](CO)NC(=O)CNC(=O)[C@@H](NC(=O)C(C)(C)NC(=O)[C@@H](N)Cc1c[nH]cn1)[C@@H](C)CC)[C@@H](C)O)C(C)C)C(C)C)C(=O)N[C@@H](C)C(=O)N[C@@H](CC(N)=O)C(=O)N[C@H](C(N)=O)[C@@H](C)O` [Peptide 358] (H-H[Aib]IGS[αMeF]TSDVSK[αMeF]LDSQAAQDFVK([AEEA-AEEA-γGlu-C18 diacid])WIANT-NH2; N-terminus assumed), for which, in test [2], the “% Relative Potency Ratio” value is given as 424.1.

In the case of `CC[C@H](C)[C@H](NC(=O)[C@H](Cc1c[nH]c2ccccc12)NC(=O)[C@H](CCCCNC(=O)COCCOCCNC(=O)COCCOCCNC(=O)CC[C@H](NC(=O)CCCCCCCCCCCCCCCCC(=O)O)C(=O)O)NC(=O)[C@@H](NC(=O)[C@](C)(Cc1ccccc1)NC(=O)[C@H](CC(=O)O)NC(=O)[C@H](CCC(N)=O)NC(=O)[C@H](C)NC(=O)[C@H](C)NC(=O)[C@H](CCC(N)=O)NC(=O)[C@H](CO)NC(=O)[C@H](CC(=O)O)NC(=O)[C@H](CC(C)C)NC(=O)[C@](C)(Cc1ccccc1)NC(=O)[C@H](CCCCN)NC(=O)[C@H](CO)NC(=O)[C@@H](NC(=O)[C@H](CC(=O)O)NC(=O)[C@H](CO)NC(=O)[C@@H](NC(=O)[C@](C)(Cc1ccccc1)NC(=O)[C@H](CO)NC(=O)CNC(=O)[C@H](Cc1c[nH]cn1)NC(=O)C(C)(C)NC(=O)[C@@H](N)Cc1c[nH]cn1)[C@@H](C)O)C(C)C)C(C)C)C(=O)N[C@@H](C)C(=O)N[C@@H](CC(N)=O)C(=O)N[C@H](C(N)=O)[C@@H](C)O` [Peptide 370] (H-H[Aib]HGS[αMeF]TSDVSK[αMeF]LDSQAAQD[αMeF]VK([AEEA-AEEA-γGlu-C18 diacid])WIANT-NH2; N-terminus assumed), the “% Relative Potency Ratio” value in test [2] came to 1.1.
